pEC50, pIC50, pKi: −log10 of the molar value. Like-named read-outs stand apart in the source and are kept apart here.
Key:
hPR [1] = molecular target: T1, hPR (Homo sapiens, UniProt P06401); assay: Cotransfection assay, PR agonist activity in CV-1 cells; assay type: cell-based; settings: for pEC50: agonist potency EC50, read-out: PR Agonist CV-1 Cells Potency
T1 sequence (P06401 1-933): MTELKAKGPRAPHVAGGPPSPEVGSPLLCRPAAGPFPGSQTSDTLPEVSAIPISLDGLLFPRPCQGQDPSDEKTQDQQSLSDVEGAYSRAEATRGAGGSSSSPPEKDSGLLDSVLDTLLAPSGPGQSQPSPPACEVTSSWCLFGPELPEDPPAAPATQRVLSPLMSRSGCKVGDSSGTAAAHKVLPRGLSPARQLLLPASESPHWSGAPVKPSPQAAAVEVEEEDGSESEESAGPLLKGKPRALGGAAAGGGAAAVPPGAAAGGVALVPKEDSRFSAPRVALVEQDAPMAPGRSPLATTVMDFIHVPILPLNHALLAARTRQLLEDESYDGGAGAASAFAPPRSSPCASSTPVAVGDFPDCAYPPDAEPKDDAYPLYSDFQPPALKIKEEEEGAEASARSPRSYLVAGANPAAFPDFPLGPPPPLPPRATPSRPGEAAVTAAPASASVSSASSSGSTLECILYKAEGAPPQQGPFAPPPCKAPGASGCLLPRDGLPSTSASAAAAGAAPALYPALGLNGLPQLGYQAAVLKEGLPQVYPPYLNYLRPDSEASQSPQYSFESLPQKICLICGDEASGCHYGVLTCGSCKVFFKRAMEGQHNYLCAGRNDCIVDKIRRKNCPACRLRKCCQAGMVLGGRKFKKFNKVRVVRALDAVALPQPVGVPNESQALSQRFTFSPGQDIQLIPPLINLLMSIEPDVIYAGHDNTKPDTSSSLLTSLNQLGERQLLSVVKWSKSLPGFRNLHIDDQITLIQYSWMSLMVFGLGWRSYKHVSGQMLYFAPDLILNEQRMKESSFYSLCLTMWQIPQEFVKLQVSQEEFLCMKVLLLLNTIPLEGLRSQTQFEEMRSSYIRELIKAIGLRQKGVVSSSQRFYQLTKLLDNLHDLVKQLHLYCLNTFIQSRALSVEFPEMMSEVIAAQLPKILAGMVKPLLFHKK
Protocol: (§1) All the cotransfection experiments were carried out in 96-well plates by automation (Beckman Biomomek automated workstation).

hPR [2] = molecular target: T1, hPR; assay: Cotransfection assay, PR antagonist activity in CV-1 cells; assay type: cell-based; settings: for pIC50: antagonist potency IC50; for PR Antagonist CV-1 Cells Efficacy (%): percent maximal response relative to reference antagonist
Protocol: as §1

hPR-A = molecular target: T2, hPR-A (Homo sapiens, UniProt P06401); assay: Receptor competitive binding assay; settings: hPR-A; read-out: PR Binding Ki
T2 sequence (P06401 1-769 isoform P06401-2): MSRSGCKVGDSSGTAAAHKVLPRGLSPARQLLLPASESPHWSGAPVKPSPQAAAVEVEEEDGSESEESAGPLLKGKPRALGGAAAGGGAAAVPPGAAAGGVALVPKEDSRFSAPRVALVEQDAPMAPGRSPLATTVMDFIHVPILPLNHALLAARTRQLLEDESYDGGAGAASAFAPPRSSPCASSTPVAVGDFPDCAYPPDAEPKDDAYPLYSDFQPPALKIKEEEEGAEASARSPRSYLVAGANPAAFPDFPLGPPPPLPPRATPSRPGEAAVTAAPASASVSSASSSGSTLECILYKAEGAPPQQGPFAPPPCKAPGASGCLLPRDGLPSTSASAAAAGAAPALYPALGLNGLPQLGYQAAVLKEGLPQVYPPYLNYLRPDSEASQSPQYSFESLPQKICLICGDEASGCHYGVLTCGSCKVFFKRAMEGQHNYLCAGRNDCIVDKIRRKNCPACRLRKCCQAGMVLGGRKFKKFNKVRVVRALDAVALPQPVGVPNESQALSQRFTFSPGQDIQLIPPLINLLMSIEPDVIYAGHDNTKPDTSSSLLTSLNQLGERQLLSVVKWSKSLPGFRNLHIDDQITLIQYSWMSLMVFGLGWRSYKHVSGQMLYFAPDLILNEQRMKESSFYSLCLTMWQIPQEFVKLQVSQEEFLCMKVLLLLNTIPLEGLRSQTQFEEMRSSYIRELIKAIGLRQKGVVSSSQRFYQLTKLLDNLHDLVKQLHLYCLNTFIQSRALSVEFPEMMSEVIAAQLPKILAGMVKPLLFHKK

immature rabbits = assay: McPhail (Clauberg) assay of progestational activity; assay type: in vivo, rabbit; settings: minimum active dose; estradiol-primed immature rabbits, uterine glandular changes
Protocol: The in vivo activity of selected hPR modulator compounds of the present invention were evaluated utilizing the McPhail assay, according to the following illustrative Examples. The Clauberg or McPhail assay is a classic assay utilizing rabbits to measure progestational activity. […] This is followed by treatment with a progestin, which causes a large change in the glandular content of the uterus. It is this change in the glandular component, which is a measure of the progestational activity of a progestin. The measurement of these glandular changes are carried out histologically using stained sections of the uterus. The in vivo potency of the progestins is presented as the minimum active dose (MAD) in mg/kg.

[3] = CV-1 cells, MTV-LUC reporter, percent maximal response relative to progesterone

Row | Compound | PR Agonist CV-1 Cells Efficacy (%) (hPR [1]) | pIC50 (hPR [2]) | PR Antagonist CV-1 Cells Efficacy (%) (hPR [2]) | pKi (hPR-A) | PR Agonist CV-1 Cells Efficacy (%) (hPR [1]; [3]) | pEC50 (hPR [1]; CV-1 cells) | MAD (immature rabbits)
1 | CC#C[C@]1(O)CC[C@H]2[C@@H]3CCC4=CC(=O)CCC4=C3[C@@H](c3ccc(N(C)C)cc3)C[C@@]21C [RU486, mifepristone, reference compound] | na (key: na = not active (i.e. efficacy of <20 and potency of >10,000)) | – | – | – | – | – | –
2 | COc1cc2c(cc1F)-c1ccc3c(c1C(C1C=C(C)CCC1)O2)C(C)=CC(C)(C)N3 (racemic) [Compound 64, (±)-(5l,1′l)-5-(3-methyl-2-cyclohexenyl)-9-fluoro-1,2-dihydro-8-methoxy-2,2,4-trimethyl-5H-chromeno[3,4-f]quinoline] | – | 5.72 | 80% | 6.31 | na (na = not active (i.e. efficacy of <20 and potency of >10,000)) | < 5.00 | –
3 | CC1=CC(C2Oc3ccc(F)cc3-c3ccc4c(c32)C(C)=CC(C)(C)N4)CC1 (racemic) [Compound 45, (±)-(5l,1′u)-5-(3-methyl-2-cyclopentenyl)-9-fluoro-1,2-dihydro-2,2,4-trimethyl-5H-chromeno[3,4-f]quinoline] | – | < 5.00 | na (na = not active (i.e. efficacy of <20 and potency of >10,000)) | 7.77 | 94% | 8.04 | –
4 | CC1=CC(C2Oc3ccc(F)cc3-c3ccc4c(c32)C(C)=CC(C)(C)N4)CCC1 (single isomer, unassigned; (+)) [Compound 27, (+)-(5l,1′l)-5-(3-methyl-2-cyclohexenyl)-9-fluoro-1,2-dihydro-2,2,4-trimethyl-5H-chromeno[3,4-f]quinoline] | – | < 5.00 | na (na = not active (i.e. efficacy of <20 and potency of >10,000)) | 6.62 | 68% | 7.37 | –
5 | CC1=C[C@@H]([C@H]2Oc3c(F)cc(F)cc3-c3ccc4c(c32)C(C)=CC(C)(C)N4)CCC1 (racemic) [Compound 35, (±)-(5l,1′u)-5-(3-methyl-2-cyclohexenyl)-7,9-difluoro-1,2-dihydro-2,2,4-trimethyl-5H-chromeno[3,4-f]quinoline] | – | – | na (na = not active (i.e. efficacy of <20 and potency of >10,000)) | – | 100% | – | –
6 | CC1=CC(C2Oc3c(F)cc(F)cc3-c3ccc4c(c32)C(C)=CC(C)(C)N4)CCC1 (single isomer, unassigned; (-)) [Compound 38, (−)-(5l,1′l)-5-(3-methyl-2-cyclohexenyl)-7,9-difluoro-1,2-dihydro-2,2,4-trimethyl-5H-chromeno[3,4-f]quinoline] | – | – | na (na = not active (i.e. efficacy of <20 and potency of >10,000)) | – | 166% | – | 0.10 mg/kg
7 | CC1=CC(C2Oc3ccc(F)cc3-c3ccc4c(c32)C(C)=CC(C)(C)N4)CCC1 (racemic) [Compound 25, (±)-(5l,1′u)-5-(3-methyl-2-cyclohexenyl)-9-fluoro-1,2-dihydro-2,2,4-trimethyl-5H-chromeno[3,4-f]quinoline] | – | < 5.00 | na (na = not active (i.e. efficacy of <20 and potency of >10,000)) | 8.20 | 86% | 8.01 | –
8 | CC(=O)[C@H]1CC[C@H]2[C@@H]3CCC4=CC(=O)CC[C@]4(C)[C@H]3CC[C@]12C [Prog, progesterone, reference compound] | – | – | – | – | 100% | – | –
9 | COc1cc2c(cc1F)-c1ccc3c(c1C(C1C=C(C)CCC1)O2)C(C)=CC(C)(C)N3 (racemic) [Compound 65, (±)-(5l,1′u)-5-(3-methyl-2-cyclohexenyl)-9-fluoro-1,2-dihydro-8-methoxy-2,2,4-trimethyl-5H-chromeno[3,4-f]quinoline] | – | 6.19 | 59% | 6.48 | na (na = not active (i.e. efficacy of <20 and potency of >10,000)) | < 5.00 | –
10 | CC1=C[C@H]([C@H]2Oc3ccc(F)cc3-c3ccc4c(c32)C=CC(C)(C)N4)CCC1 (racemic) [Compound 41, (±)-(5l,1′l)-5-(3-methyl-2-cyclohexenyl)-9-fluoro-1,2-dihydro-2,2-dimethyl-5H-chromeno[3,4-f]quinoline] | – | < 5.00 | na (na = not active (i.e. efficacy of <20 and potency of >10,000)) | 7.96 | 122% | 8.00 | –
11 | CC1=CC(C2Oc3ccc(F)cc3-c3ccc4c(c32)C(C)=CC(C)(C)N4)CC1 (racemic) [Compound 44, (±)-(5l,1′l)-5-(3-methyl-2-cyclopentenyl)-9-fluoro-1,2-dihydro-2,2,4-trimethyl-5H-chromeno[3,4-f]quinoline] | – | < 5.00 | na (na = not active (i.e. efficacy of <20 and potency of >10,000)) | 8.11 | 123% | 8.17 | –
12 | CC1=C[C@@H]([C@H]2Oc3ccc(F)cc3-c3ccc4c(c32)C=CC(C)(C)N4)CCC1 (racemic) [Compound 42, (±)-(5l,1′u)-5-(3-methyl-2-cyclohexenyl)-9-fluoro-1,2-dihydro-2,2-dimethyl-5H-chromeno[3,4-f]quinoline] | – | < 5.00 | na (na = not active (i.e. efficacy of <20 and potency of >10,000)) | 6.84 | 27% | 7.42 | –
13 | CC1=CC(C2Oc3c(F)cc(F)cc3-c3ccc4c(c32)C(C)=CC(C)(C)N4)CCC1 (single isomer, unassigned; (+)) [Compound 37, (+)-(5l,1′l)-5-(3-methyl-2-cyclohexenyl)-7,9-difluoro-1,2-dihydro-2,2,4-trimethyl-5H-chromeno[3,4-f]quinoline] | – | – | 50% | – | na (na = not active (i.e. efficacy of <20 and potency of >10,000)) | – | –
14 | CN(C)c1ccc([C@H]2C[C@]3(C)[C@@H](CC[C@]3(O)CCCO)[C@@H]3CCC4=CC(=O)CCC4=C32)cc1 [ZK299, reference compound] | – | – | 99% | – | – | – | –
15 | CC1=CC(C2Oc3ccc(F)cc3-c3ccc4c(c32)C(C)=CC(C)(C)N4)CCC1 (single isomer, unassigned; (-)) [Compound 28, (−)-(5l,1′l)-5-(3-methyl-2-cyclohexenyl)-9-fluoro-1,2-dihydro-2,2,4-trimethyl-5H-chromeno[3,4-f]quinoline] | – | < 5.00 | na (na = not active (i.e. efficacy of <20 and potency of >10,000)) | 8.70 | 171% | 9.05 | –

From US7071205B2 (Ligand Pharmaceuticals Incorporated, priority 2002, dated 2006)
